We go through 2 compounds from US20100113415A1, “EPHA4 RTK INHIBITORS FOR TREATMENT OF NEUROLOGICAL AND NEURODEGENERATIVE DISORDERS AND CANCER” (priority 2008, published 2010).

Series [1] has as its system Primary Rat cortical astrocytes. As to the kind of experiment: Toxicity (percent of cell death), astrocytes. The conditions noted are these: at 20 μM. It is filed as cell-based. The procedure: EphA4 kinase inhibition is assessed by both an enzymatic assay measuring the phosphorylation of a purified recombinant EphA4 kinase and a cell-based assay using the activation of pGas-Luciferase system in EphA4-transfected CHO-K1 cells. The functional effects of EphA4 RTK inhibitors on cell motility and proliferation is evaluated by the scratch wound assay. The effect of EphA4 RTK inhibitors is also directly measured on the cell confluence. The counterscreen assays (cell counterscreen, Src, Jak2 and P38α kinase) identified other potential inhibitory activities of compounds unrelated to EphA4 kinase. The toxicity is measured by the percent of cell death in the different cell assays. Values represent IC50 and IP in μM calculated from the dose-response curves. Values in parentheses give the maximum percent inhibition.

Series [2] addresses T1, P38alpha kinase (Homo sapiens, UniProt Q16539).
T1 construct: purchased Dundee Library
As to the kind of experiment: P38 alpha kinase counterscreen assay (Caliper mobility shift). It is filed as biochemical. As for the experimental part: A counterscreen assay was performed to measure p38alpha kinase activity using the Caliper System (LifeSciences, USA). This system is based on the microfluidic technology. P38 alpha kinase activity was measured by the shift in mobility of the non-phosphorylated form when separated by electrophoresis and detected via LED (Light Emitting Diode) induced fluorescence. This assay was automated following the manufacturer's protocol. P38alpha kinase and its substrate GST-MK2 were bought from Dundee Library.
Compounds were titrated, concentration-response curves were represented and the concentrations for 50% inhibition (IC50) were calculated.

T1 sequence (Q16539 whole entry): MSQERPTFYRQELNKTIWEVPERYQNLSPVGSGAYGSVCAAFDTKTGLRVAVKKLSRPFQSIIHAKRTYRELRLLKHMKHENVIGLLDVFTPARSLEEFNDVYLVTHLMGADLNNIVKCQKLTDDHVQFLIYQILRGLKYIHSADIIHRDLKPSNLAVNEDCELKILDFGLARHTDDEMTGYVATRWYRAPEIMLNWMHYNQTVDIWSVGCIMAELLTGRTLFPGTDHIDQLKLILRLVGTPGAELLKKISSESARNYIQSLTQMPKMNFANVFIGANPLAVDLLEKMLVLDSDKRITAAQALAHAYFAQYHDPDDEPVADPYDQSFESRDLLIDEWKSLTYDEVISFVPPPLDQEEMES

On to `CC1CCc2c(-c3ccccc3Cl)nc3[nH]nc(N)c3c2C1` (stereo not shown) [Example 63], for which, in series [1], the “Max Toxicity Astrocytes % of cell death” value turned out to be 5% at 20 μM. Besides, in series [2], the IC50 turned out to be 7.3 µM.

With `Cc1ccccc1-c1nc2[nH]nc(N)c2c2c1CCC(C)(C)C2` [Example 67], in series [1], the “Max Toxicity Astrocytes % of cell death” value is 12.5% at 20 μM. For the same compound, the IC50 in series [2] came out at 3.7 µM.
